Laboratory results: paper PMC3920557 (The Journal of Experimental Medicine, 2014)
Ends that are not written are not given here.

Legend:
[1] = system: OB1-MHC class II GFP B cells; test: Peptide internalization by confocal microscopy, OB1 MHC II GFP B cells; format: cell-based, mouse; details: Alexa Fluor 647-conjugated versions, 1 µM, 10 min, washed, confocal microscopy (Fig. 1 F)
OB1 B cells = test: ERK1/2 phosphorylation in OB1 B cells; format: cell-based, mouse; details: 0.5 µM, 1 and 3 min; AGA 17-mer 3 min (Fig. 2 B)
[2] = Solubility and aggregation of peptide; format: physicochemical

Row | Sequence | antigen internalization in OB1-MHC class II GFP B cells [1] | ERK1/2 phosphorylation, nested peptides (OB1 B cells) | water solubility [2]
1 | FDKLPGAGASIEAQGGK [AGA 17-mer] | did not detect any | did not stimulate | 
2 | FDKLPGFGDSIEAQGGK [FGD 17-mer] |  |  | water-soluble
